Measurements from US6043252A, “Carboline derivatives” (Icos Corporation, priority 1998, dated 2000).
No end group written: not given here.

Legend:
[1] = test system: Rat aortic smooth muscle cells (RSMC); assay: cGMP level measurements in rat aortic smooth muscle cells stimulated with ANF; assay type: cell-based; settings: compound 30 minutes at 37° C., then ANF (100 nM) 10 minutes, dose giving half of the stimulation at saturating concentrations
Protocol: Rat aortic smooth muscle cells (RSMC), prepared according to Chamley et al., Cell Tissue Res., 177, 503-522 (1977), were used between the 10th and 25th passage at confluence in 24-well culture dishes. Culture media was aspirated and replaced with PBS (0.5 ml) containing the compound tested at the appropriate concentration. After 30 minutes at 37° C., particulates guanylate cyclase was stimulated by addition of ANF (100 nM) for 10 minutes. At the end of incubation, the medium was withdrawn, and two extractions were performed by addition of 65% ethanol (0.25 ml). The two ethanolic extracts were pooled and evaporated until dryness, using a Speed-vac system. CGMP was measured after acetylation by scintillation proximity immunoassay (AMERSHAM). The EC50 values are expressed as the dose-giving half of the stimulation at saturating concentrations.

[2] = test system: conscious spontaneously hypertensive rats (SHRs); assay: Hypotensive effect in conscious spontaneously hypertensive rats; assay type: in vivo, rat; settings: 5 mg/kg orally in 5% DMF and 95% olive oil, AUC from 0 to 5 hours
Protocol: The hypotensive effects of compounds according to the invention as identified in Table 2 were studied in conscious spontaneously hypertensive rats (SHRs). The compounds were administered orally at a dose of 5 mg/kg in a mixture of 5% DMF and 95% olive oil. Blood pressure was measured from a catheter inserted in the carotid artery and recorded for five hours after administration. The results are expressed as Area Under the Curve (AUC from 0 to 5 hours, mmhg.hour) of the fall in blood pressure over time.

[3] = test system: MED; settings: clinical; oral, sublingual, intraurethral, i.c. or topical; cited from earlier work
[4] = target: human recombinant PDE5 (Homo sapiens, UniProt O76074); assay: Inhibitory effect on cGMP-PDE (one-step PDE5 assay); assay type: biochemical; settings: 0.15 μM 8-[H^3 ]-cGMP, 2% DMSO, 30 minutes
Protocol: CGMP-PDE activity of compounds of the present invention was measured using a one-step assay adapted from Wells et al., Biochim. Biophys. Acta, 384, 430 (1975). The reaction medium contained 50 mM Tris-HCl, pH 7.5, 5 mM magnesium acetate, […] 51-Nucleotidase, 1 mM EGTA, and 0.15 μM 8-[H^3 ]-cGMP. The enzyme used was a human recombinant PDE5 (ICOS Corp., Bothell, Wash.).
Compounds of the invention were dissolved in DMSO finally present at 2% in the assay.

[5] = test system: PDE6; settings: cited from earlier work

Compound | EC50 [1] [nM] | SHR AUC PO (Area Under the Curve of the fall in blood pressure over time) [2] [mmHG · h] | further results
O=C(/C=C/c1ccccc1)N1CCc2c([nH]c3ccccc23)C1c1ccc2c(c1)CCO2 (stereo not drawn) [Example 112, (E)-1-[1-(2,3-Dihydrobenzofuran-5-yl)-1,3,4,9-tetrahydro-β-carbolin-2-yl]-3-phenylpropene-1-one] | – | 71 | –
CCCCC[C@H](O)/C=C/[C@H]1[C@H](O)CC(=O)[C@@H]1CCCCCCC(=O)O [alprostadil] | – | – | efficacy in MED [3]: not effective in all patients
CCN(C)CCOc1ccc(/C=C/C(=O)N2CCc3c([nH]c4ccccc34)[C@H]2c2ccc3c(c2)CCO3)cc1 [Example 175, (E)-(R)-1-[1-(2,3-Dihydrobenzofuran-5-yl)-1,3,4,9-tetrahydro-β-carbolin-2-yl]-3-(4-(2-(ethylmethylamino)ethoxy)phenyl)propene-1-one] | – | 52 | –
O=C(/C=C/c1ccc([N+](=O)[O-])cc1)N1CCc2c([nH]c3ccccc23)C1c1ccc2c(c1)OCO2 (stereo not drawn) [Example 26, (E)-1-[1-(3,4-Methylenedioxyphenyl)-1,3,4,9-tetrahydro-β-carbolin-2-yl]-3-(4-nitrophenyl)propene-1-one] | – | 102 | –
COC(=O)c1ccc(/C=C/C(=O)N2CCc3c([nH]c4ccccc34)C2c2ccc3c(c2)OCO3)cc1 (stereo not drawn) [Example 28, (E)-4-[3-Oxo-3-[1-(3,4-methylenedioxyphenyl)-1,3,4,9-tetrahydro-β-carbolin-2-yl]-propenyl]benzoic Acid, Methyl Ester] | 300 | 114 | IC50 [4]: 55 nM
O=C(O)c1ccc(/C=C/C(=O)N2CCc3c([nH]c4ccccc34)C2c2ccc3c(c2)OCO3)cc1 (stereo not drawn) [Example 31, (E)-4-[3-Oxo-3-[1-(3,4-methylenedioxyphenyl)-1,3,4,9-tetrahydro-β-carbolin-2-yl]-propenyl]benzoic acid] | 1000 | 86 | IC50 [4]: 4 nM
CC(C)C(=O)Nc1ccc(/C=C/C(=O)N2CCc3c([nH]c4ccccc34)C2c2ccc3c(c2)OCO3)cc1 (stereo not drawn) [Example 55, (E)-N-[4-[3-Oxo-3-(1-(3,4-methylenedioxyphenyl)-1,3,4,9-tetrahydro-β-carbolin-2-yl)propenyl]phenyl]isobutyramide] | 400 | 97 | IC50 [4]: 40 nM
CCCc1nn(C)c2c(=O)[nH]c(-c3cc(S(=O)(=O)N4CCN(C)CC4)ccc3OCC)nc12 [sildenafil] | – | – | efficacy in MED [3]: has shown efficacy in oral administration clinical trials for MED; selectivity with respect to PDE6 [5]: little selectivity with respect to PDE6
Nc1ccc(/C=C/C(=O)N2CCc3c([nH]c4ccccc34)C2c2ccc3c(c2)OCO3)cc1 (stereo not drawn) [Example 25, (E)-1-[1-(3,4-Methylenedioxyphenyl)-1,3,4,9-tetrahydro-β-carbolin-2-yl]-3-(4-aminophenyl)propene-1-one] | 300 | 72 | IC50 [4]: 72 nM
CC(=O)Nc1ccc(/C=C/C(=O)N2CCc3c([nH]c4ccccc34)C2c2ccc3c(c2)OCO3)cc1 (stereo not drawn) [Example 14, (E)-N-[4-[3-Oxo-3-(1-(3,4-methylenedioxyphenyl)-1,3,4,9-tetrahydro-β-carbolin-2-yl)propenyl]phenyl]acetamide] | 450 | 128 | IC50 [4]: 5 nM
Cc1ccc(N(CC2=NCCN2)c2cccc(O)c2)cc1 [phentolamine] | – | – | efficacy in MED [3]: neither compound has demonstrated efficacy across a broad range of subjects
CN1CCc2cccc3c2[C@H]1Cc1ccc(O)c(O)c1-3 [apomorphine] | – | – | efficacy in MED [3]: neither compound has demonstrated efficacy across a broad range of subjects
CN(C)CCOc1ccc(/C=C/C(=O)N2CCc3c([nH]c4ccccc34)C2c2ccc3c(c2)CCO3)cc1 (stereo not drawn) [Example 122] | – | 76 | –
vasoactive intestinal polypeptide (VIP): vasoactive intestinal polypeptide (VIP) (HSDAVFTDNYTRLRKQMAVKKYLNSILN; ends and bridges not checked; UniProt P01282 125-152, looked up) | – | – | efficacy in MED [3]: active i.c.

Second part, led by results:

EC50 [1] [nM] | Compound | SHR AUC PO (Area Under the Curve of the fall in blood pressure over time) [2] [mmHG · h] | further results
< 1000 | CN(C)C[C@@H](O)COc1ccc(/C=C/C(=O)N2CCc3c([nH]c4ccccc34)C2c2ccc3c(c2)CCO3)cc1 (stereo partly drawn) [Example 177, (E)-(R)-1-[1-(2,3-Dihydrobenzofuran-5-yl)-1,3,4,9-tetrahydro-β-carbolin-2-yl]-3-(4-(3-dimethylamino-2-hydroxypropoxy)phenyl)propene-1-one] | 100 | –
< 1000 | CN1CCC[C@H]1COc1ccc(/C=C/C(=O)N2CCc3c([nH]c4ccccc34)[C@H]2c2ccc3c(c2)CCO3)cc1 [Example 156] | 57 | –
1500 | CCN(CC)CCOc1ccc(/C=C/C(=O)N2CCc3c([nH]c4ccccc34)[C@H]2c2ccc3c(c2)CCO3)cc1 [Example 164] | – | –
1800 | CN(C)CCOc1ccc(/C=C/C(=O)N2CCc3c([nH]c4ccccc34)C2c2ccc3c(c2)OCO3)cc1 (stereo not drawn) [Example 61, (E)-1-[1-(3,4-Methylenedioxyphenyl)-1,3,4,9-tetrahydro-β-carbolin-2-yl]-3-[4-(2-dimethylaminoethoxy)phenyl]propene-1-one] | 95 | IC50 [4]: 20 nM
1500 | O=C(/C=C/c1ccc(OCCN2CCCC2)cc1)N1CCc2c([nH]c3ccccc23)C1c1ccc2c(c1)CCO2 (stereo not drawn) [Example 142] | 74 | –
< 1000 | CC(COc1ccc(/C=C/C(=O)N2CCc3c([nH]c4ccccc34)[C@H]2c2ccc3c(c2)CCO3)cc1)N(C)C (stereo partly drawn) [Example 165] | – | –
< 1000 | CNCCOc1ccc(/C=C/C(=O)N2CCc3c([nH]c4ccccc34)[C@H]2c2ccc3c(c2)CCO3)cc1 [Example 191, (E)-(R)-1-[1-(2,3-Dihydrobenzofuran-5-yl)-1,3,4,9-tetrahydro-carbolin-2-yl]-3-[4-(2-methylaminoethoxy)phenyl]propene-1-one] | 84 | –
< 1000 | O=C(/C=C/c1ccc(O)cc1)N1CCc2c([nH]c3ccccc23)[C@H]1c1ccc2c(c1)CCO2 [Example 182, (E)-(R)-1-[1-(2,3-Dihydrobenzofuran-5-yl)-1,3,4,9-tetrahydro-β-carbolin-2-yl]-3-(4-hydroxyphenyl)propene-1-one] | – | –
2000 | CN1CCN(c2ccc(/C=C/C(=O)N3CCc4c([nH]c5ccccc45)[C@H]3c3ccc4c(c3)CCO4)cc2)CC1 [Example 183] | – | –
3000 | CNCc1ccc(/C=C/C(=O)N2CCc3c([nH]c4ccccc34)[C@H]2c2ccc3c(c2)CCO3)cc1 [Example 184] | – | –
< 1000 | O=C(/C=C/c1ccc(OCCN2CCCCC2)cc1)N1CCc2c([nH]c3ccccc23)[C@H]1c1ccc2c(c1)CCO2 [Example 188, (E)-(R)-1-[1-(2,3-Dihydrobenzofuran-5-yl)-1,3,4,9-tetrahydro-β-carbolin-2-yl]-3-(4-(2-piperidin-1-ylethoxy)phenyl)propene-1-one] | 86 | –
3500 | CN(C)CCNc1ccc(/C=C/C(=O)N2CCc3c([nH]c4ccccc34)[C@H]2c2ccc3c(c2)CCO3)cc1 [Example 180] | – | –
2000 | NCCOc1ccc(/C=C/C(=O)N2CCc3c([nH]c4ccccc34)[C@H]2c2ccc3c(c2)CCO3)cc1 [Example 181, (E)-(R)-1-[1-(2,3-Dihydrobenzofuran-5-yl)-1,3,4,9-tetrahydro-β-carbolin-2-yl]-3-(4-(2-aminoethoxy)phenyl)propene-1-one] | 77 | –
100 | CN(C)CCOc1ccc(/C=C/C(=O)N2CCc3c([nH]c4ccccc34)[C@H]2c2ccc3c(c2)CCO3)cc1 [Example 140] | 105 | –
